Values joined by “and” are separate entries in the source; they are usually repeats but may differ in a detail not shown here. Equal values may be shown once. Toxic doses and inconclusive results are not listed. No stated cut-off is given here; in the data, active means T/C of 150% or more; inactive means T/C below 125%.
Tested on: L1210 leukemia ip in BDF1 mice, survival T/C
Assay: NCI In Vivo Anticancer Drug Screen. Data for tumor model L1210 Leukemia (intraperitoneal) in B6D2F1 (BDF1) mice
Conditions: endpoint: mean survival time, higher = longer survival
Procedure, shortened: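 Transplantable tumor model; survival measured in treated vs vehicle control mice. Value = treated/control.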

[1] = dose: 100.0 mg/kg/injection, schedule: Q01DX001 (ip), vehicle: Klucel (hydroxypropylcellulose) (HPC)
[2] = dose: 200.0 mg/kg/injection, schedule: Q01DX001 (ip), vehicle: Klucel (hydroxypropylcellulose) (HPC)
[3] = dose: 400.0 mg/kg/injection, schedule: Q01DX001 (ip), vehicle: Klucel (hydroxypropylcellulose) (HPC)
[4] = dose: 100.0 mg/kg/injection, schedule: Q04DX002 (ip), vehicle: Klucel (hydroxypropylcellulose) (HPC)
[5] = dose: 200.0 mg/kg/injection, schedule: Q04DX002 (ip), vehicle: Klucel (hydroxypropylcellulose) (HPC)
[6] = dose: 100.0 mg/kg/injection, schedule: Q01DX001 (ip), vehicle: carboxymethylcellulose (CMC)
[7] = dose: 200.0 mg/kg/injection, schedule: Q01DX001 (ip), vehicle: carboxymethylcellulose (CMC)
[8] = dose: 400.0 mg/kg/injection, schedule: Q01DX001 (ip), vehicle: carboxymethylcellulose (CMC)
[9] = dose: 50.0 mg/kg/injection, schedule: Q04DX003 (ip), vehicle: Klucel (hydroxypropylcellulose) (HPC)
[10] = dose: 100.0 mg/kg/injection, schedule: Q04DX003 (ip), vehicle: Klucel (hydroxypropylcellulose) (HPC)
[11] = dose: 200.0 mg/kg/injection, schedule: Q04DX003 (ip), vehicle: Klucel (hydroxypropylcellulose) (HPC)
[12] = dose: 400.0 mg/kg/injection, schedule: Q04DX002 (ip), vehicle: Klucel (hydroxypropylcellulose) (HPC)

Measured: T/C

CC/C=C(\C)CC(C)O (stereo not given)
inactive: dose: 200.0 mg/kg/injection, schedule: Q04DX002 (ip), vehicle: saline with Tween-80 90 % of control | dose: 400.0 mg/kg/injection, schedule: Q04DX002 (ip), vehicle: saline with Tween-80 90 % of control

OC(Cc1ccccc1)(c1ccc(Cl)cc1)c1ccc(Cl)cc1
inactive: [1] 107 % of control | [2] 95 % of control | [3] 101 % of control

Cc1c([N+](=O)[O-])cc(C(C)(C)C)c(OC(=O)C(Cl)(Cl)Cl)c1[N+](=O)[O-]
inactive: [4] 95 % of control | [5] 91 % of control

Cc1c(C(=O)O)c(C(=O)O)c(C)n1-c1ccccc1C(=O)O (tested in a mixture with another compound)
inactive: dose: 100.0 mg/kg/injection, schedule: Q04DX003 (ip), vehicle: saline 106 % of control | dose: 200.0 mg/kg/injection, schedule: Q04DX003 (ip), vehicle: saline 101 % of control

COC(=O)c1cc2c(cc1N=Cc1ccccc1Cl)OCO2
inactive: dose: 75.0 mg/kg/injection, schedule: Q04DX003 (ip), vehicle: Klucel (hydroxypropylcellulose) (HPC) 101 % of control | [1] 97 % of control | dose: 150.0 mg/kg/injection, schedule: Q04DX003 (ip), vehicle: Klucel (hydroxypropylcellulose) (HPC) 98 % of control | [2] 95 % of control | dose: 300.0 mg/kg/injection, schedule: Q04DX003 (ip), vehicle: Klucel (hydroxypropylcellulose) (HPC) 97 % of control | [3] 95 % of control

Cc1c2c(c(C)c3c1[nH]c1ccccc13)CCN=C2
inactive: dose: 50.0 mg/kg/injection, schedule: Q01DX001 (ip), vehicle: carboxymethylcellulose (CMC) 104 % of control | [6] 114 % of control | [7] 104 % of control | [8] 111 % of control

Cc1cc2c(C)c3ccccc3c(C)c2c2ccccc12
inactive: [9] 98 % of control | [10] 95 % of control | [11] 104 % of control

c1ccc2c(c1)ccc1ccc3cccc[n+]3c12
inactive: dose: 1.25 mg/kg/injection, schedule: Q01DX001 (ip), vehicle: saline 93 % of control | dose: 2.5 mg/kg/injection, schedule: Q01DX001 (ip), vehicle: saline 102 % of control | dose: 5.0 mg/kg/injection, schedule: Q01DX001 (ip), vehicle: saline 108 % of control | dose: 10.0 mg/kg/injection, schedule: Q01DX001 (ip), vehicle: saline 102 % of control

CCCCNC(=O)Nc1cc(C)cc(C)n1
inactive: dose: 100.0 mg/kg/injection, schedule: Q01DX009 (ip), vehicle: Klucel (hydroxypropylcellulose) (HPC) 100 % of control | [10] 94 % of control | dose: 200.0 mg/kg/injection, schedule: Q01DX009 (ip), vehicle: Klucel (hydroxypropylcellulose) (HPC) 104 % of control | [11] 102 % of control | dose: 400.0 mg/kg/injection, schedule: Q01DX009 (ip), vehicle: Klucel (hydroxypropylcellulose) (HPC) 91 % of control | dose: 400.0 mg/kg/injection, schedule: Q04DX003 (ip), vehicle: Klucel (hydroxypropylcellulose) (HPC) 98 % of control

Cc1ccc(N=C=Nc2ccc(C)cc2)cc1
inactive: dose: 25.0 mg/kg/injection, schedule: Q04DX003 (ip), vehicle: Klucel (hydroxypropylcellulose) (HPC) 105 % of control | [9] 97 % of control | [10] 90 % of control

CCCCCC(C[N+](C)(C)C)C(=O)/C=C/c1ccc(Cl)c(Cl)c1 (stereo not given)
inactive: dose: 25.0 mg/kg/injection, schedule: Q04DX002 (ip), vehicle: Klucel (hydroxypropylcellulose) (HPC) 91 % of control | dose: 50.0 mg/kg/injection, schedule: Q04DX002 (ip), vehicle: Klucel (hydroxypropylcellulose) (HPC) 98 % of control | [4] 95 % of control

NC(CCC1SCCS1)C(=O)O (stereo not given)
inactive: [6] 104 % of control | [7] 96 % of control | [8] 98 % of control

O=C(NC(=S)NCc1ccncc1)c1ccccc1
inactive: [4] 100 % of control | [5] 95 % of control | [12] 92 % of control

CCOC1OC(=O)c2cccc3ccc4cccc1c4c23 (stereo not given)
inactive: [4] 90 % of control | [5] 86 % of control | [12] 93 % of control

COC(=O)C1C2C(C)=CC(O)(CC2(C)C)C1C(=O)OC (stereo not given)
inactive: dose: 100.0 mg/kg/injection, schedule: Q01DX001 (ip), vehicle: saline 95 % of control | dose: 200.0 mg/kg/injection, schedule: Q01DX001 (ip), vehicle: saline 95 % of control | dose: 400.0 mg/kg/injection, schedule: Q01DX001 (ip), vehicle: saline 101 % of control

CN(C)CCCN1c2ccccc2Sc2ccccc21
inactive: dose: 4.6 mg/kg/injection, schedule: Q01DX009 (ip), vehicle: saline 98 % of control | dose: 9.3 mg/kg/injection, schedule: Q01DX009 (ip), vehicle: saline 105 % of control | dose: 9.37 mg/kg/injection, schedule: Q01DX009 (ip), vehicle: saline 96 % of control | dose: 18.0 mg/kg/injection, schedule: Q01DX001 (ip), vehicle: saline 107 % of control | dose: 18.0 mg/kg/injection, schedule: Q01DX009 (ip), vehicle: saline 112 % of control | dose: 18.0 mg/kg/injection, schedule: Q04DX003 (ip), vehicle: saline 116 % of control | dose: 18.75 mg/kg/injection, schedule: Q01DX009 (ip), vehicle: saline 104 % of control and 108 % of control | dose: 18.75 mg/kg/injection, schedule: Q04DX003 (ip), vehicle: saline 115 % of control | dose: 37.0 mg/kg/injection, schedule: Q01DX001 (ip), vehicle: saline 110 % of control | dose: 37.0 mg/kg/injection, schedule: Q01DX009 (ip), vehicle: saline 112 % of control | dose: 37.0 mg/kg/injection, schedule: Q04DX003 (ip), vehicle: saline 115 % of control | dose: 37.5 mg/kg/injection, schedule: Q01DX009 (ip), vehicle: saline 98 % of control and 122 % of control | dose: 37.5 mg/kg/injection, schedule: Q04DX003 (ip), vehicle: saline 102 % of control | dose: 75.0 mg/kg/injection, schedule: Q01DX001 (ip), vehicle: saline 105 % of control | dose: 75.0 mg/kg/injection, schedule: Q01DX009 (ip), vehicle: saline 122 % of control | dose: 75.0 mg/kg/injection, schedule: Q04DX003 (ip), vehicle: saline 102 % of control and 116 % of control

CC1CN1P(=O)(N1CCCCC1)N1CC1C (stereo not given)
inactive: dose: 11.0 mg/kg/injection, schedule: Q01DX Z (ip), vehicle: carboxymethylcellulose (CMC) 97 % of control | dose: 11.0 mg/kg/injection, schedule: Q01DX Z (ip), vehicle: saline 109 % of control | dose: 13.0 mg/kg/injection, schedule: Q01DX Z (ip), vehicle: carboxymethylcellulose (CMC) 102 % of control | dose: 17.0 mg/kg/injection, schedule: Q01DX Z (ip), vehicle: carboxymethylcellulose (CMC) 119 % of control | dose: 17.0 mg/kg/injection, schedule: Q01DX Z (ip), vehicle: saline 116 % of control | dose: 20.0 mg/kg/injection, schedule: Q01DX Z (ip), vehicle: carboxymethylcellulose (CMC) 102 % of control | dose: 25.0 mg/kg/injection, schedule: Q01DX Z (ip), vehicle: carboxymethylcellulose (CMC) 104 % of control and 116 % of control | dose: 25.0 mg/kg/injection, schedule: Q01DX Z (ip), vehicle: saline 104 % of control | dose: 30.0 mg/kg/injection, schedule: Q01DX Z (ip), vehicle: carboxymethylcellulose (CMC) 105 % of control | dose: 38.0 mg/kg/injection, schedule: Q01DX Z (ip), vehicle: carboxymethylcellulose (CMC) 115 % of control and 116 % of control | dose: 45.0 mg/kg/injection, schedule: Q01DX Z (ip), vehicle: carboxymethylcellulose (CMC) 100 % of control and 115 % of control | dose: 57.0 mg/kg/injection, schedule: Q01DX Z (ip), vehicle: saline 118 % of control | dose: 85.0 mg/kg/injection, schedule: Q01DX Z (ip), vehicle: carboxymethylcellulose (CMC) 109 % of control | dose: 86.0 mg/kg/injection, schedule: Q01DX Z (ip), vehicle: saline 102 % of control and 113 % of control

— PubChem BioAssay AID248 (DTP/NCI, 2004)
